Measured values as given in US8063048B2, “Acetylenyl-pyrazolo-pyrimidine derivatives” (Hoffmann-La Roche Inc., priority 2005, dated 2011).

SMILES	melting point
NC(=O)c1ccc(C#Cc2cnn3c(C(F)(F)F)cc(-c4ccc(C(F)(F)F)cc4)nc23)cc1 [Example 197, 4-[7-Trifluoromethyl-5-(4-trifluoromethyl-phenyl)-pyrazolo[1,5-a]pyrimidin-3-ylethynyl]-benzamide]	260 °C
O=S(=O)(NC(CO)(CO)CO)c1cncc(C#Cc2cnn3c(C(F)(F)F)cc(-c4ccc(C(F)(F)F)cc4)nc23)c1 [Example 22, 5-[7-Trifluoromethyl-5-(4-trifluoromethyl-phenyl)-pyrazolo[1,5-a]pyrimidin-3-ylethynyl]-pyridine-3-sulfonic acid (2-hydroxy-1,1-bis-hydroxymethyl-ethyl)-amide]	230 to 232 °C
Cc1cc(-c2ccc(Cl)cc2)cn2c(C#Cc3cnc(N)nc3)cnc12 [Example 221, 5-[6-(4-Chloro-phenyl)-8-methyl-imidazo[1,2-a]pyridin-3-ylethynyl]-pyrimidin-2-ylamine]	263 °C
Cc1cc(CNS(=O)(=O)c2ccc(C#Cc3cnn4c(C(F)(F)F)cc(-c5ccc(C(F)(F)F)cc5)nc34)s2)cc(C)n1 [Example 283, 5-[7-Trifluoromethyl-5-(4-trifluoromethyl-phenyl)-pyrazolo[1,5-a]pyrimidin-3-ylethynyl]-thiophene-2-sulfonic acid (2,6-dimethyl-pyridin-4-ylmethyl)-amide]	200 °C
CNS(=O)(=O)c1cccc(C#Cc2cnn3c(C(F)F)cc(-c4ccc(C(F)(F)F)cc4)nc23)c1 [Example 145, 3-[7-Difluoromethyl-5-(4-trifluoromethyl-phenyl)-pyrazolo[1,5-a]pyrimidin-3-ylethynyl]-N-methyl-benzenesulfonamide]	192 to 194 °C
O=S(=O)(Nc1cccnc1)c1ccc(C#Cc2cnn3c(C(F)(F)F)cc(-c4ccc(C(F)(F)F)cc4)nc23)s1 [Example 279, 5-[7-Trifluoromethyl-5-(4-trifluoromethyl-phenyl)-pyrazolo[1,5-a]pyrimidin-3-ylethynyl]-thiophene-2-sulfonic acid pyridin-3-ylamide]	248 °C

Other lines, results leading:

melting point	SMILES
157 to 159 °C	FC(F)(F)c1ccc(-c2cc(C(F)(F)F)n3ncc(C#Cc4cnc(Cl)nc4)c3n2)cc1 [Example 182, 3-(2-Chloro-pyrimidin-5-ylethynyl)-7-trifluoromethyl-5-(4-trifluoromethyl-phenyl)-pyrazolo[1,5-a]pyrimidine]
190 to 191 °C	CC(C)(CO)NS(=O)(=O)c1cncc(C#Cc2cnn3c(C4CC4)cc(-c4ccc(C(F)(F)F)cc4)nc23)c1 [Example 78, 5-[7-Cyclopropyl-5-(4-trifluoromethyl-phenyl)-pyrazolo[1,5-a]pyrimidin-3-ylethynyl]-pyridine-3-sulfonic acid (2-hydroxy-1,1-dimethyl-ethyl)-amide]
245 to 246 °C	Cc1nc(C#Cc2cnn3c(C(F)(F)F)cc(-c4ccc(C(F)(F)F)cc4)nc23)sc1S(N)(=O)=O [Example 54, 4-Methyl-2-[7-trifluoromethyl-5-(4-trifluoromethyl-phenyl)-pyrazolo[1,5-a]pyrimidin-3-ylethynyl]-thiazole-5-sulfonic acid amide]
148 to 152 °C	Cc1cc(-c2ccc(C(F)(F)F)cc2)nc2c(C#Cc3ccc(S(=O)(=O)NC(CO)CO)s3)cnn12 [Example 308, 5-[7-Methyl-5-(4-trifluoromethyl-phenyl)-pyrazolo[1,5-a]pyrimidin-3-ylethynyl]-thiophene-2-sulfonic acid (2-hydroxy-1-hydroxymethyl-ethyl)-amide]
193 °C	NS(=O)(=O)c1cccc(C#Cc2cnn3c(C(F)(F)F)cc(-c4cccc(C(F)(F)F)c4)nc23)c1 [Example 118, 3-[7-Trifluoromethyl-5-(3-trifluoromethyl-phenyl)-pyrazolo[1,5-a]pyrimidin-3-ylethynyl]-benzenesulfonamide]
